Laboratory results: ChEMBL document CHEMBL4364295, “Discovery of a First-in-Class Receptor Interacting Protein 2 (RIP2) Kinase Specific Clinical Candidate, 2-((4-(Benzo[d]thiazol-5-ylamino)-6-(tert-butylsulfonyl)quinazolin-7-yl)oxy)ethyl Dihydrogen Phosphate, for the Treatment of Inflammatory Diseases” (J Med Chem, 2019)
Values after ≈ are worked out from the molar mass of the structure shown. Blank lines part the entries; values can stand above or below the compound they belong to. Active and inactive are the calls of the source. The rule behind the calls is not given here.

How the values were obtained:
Intestinal mucosa [1] = assay: Antiinflammatory activity in crohn's disease patient derived inflamed intestinal mucosa assessed as reduction in IL1beta production at 1 uM measured after overnight incubation by immunoassay; format: functional, tissue-based; conditions: Homo sapiens
Intestinal mucosa [2] = assay: Antiinflammatory activity in ulcerative colitis patient derived inflamed intestinal mucosa assessed as reduction in IL6 production at 1 uM measured after overnight incubation by immunoassay; format: functional, tissue-based; conditions: Homo sapiens
Intestinal mucosa [3] = assay: Antiinflammatory activity in ulcerative colitis patient derived inflamed intestinal mucosa assessed as reduction in IL1beta production at 1 uM measured after overnight incubation by immunoassay; format: functional, tissue-based; conditions: Homo sapiens
Intestinal mucosa [4] = assay: Antiinflammatory activity in crohn's disease patient derived inflamed intestinal mucosa assessed as reduction in IL6 production at 1 uM measured after overnight incubation by immunoassay; format: functional, tissue-based; conditions: Homo sapiens
Mus musculus [5] = assay: (§1) Antiinflammatory activity TNBS-induced mouse model of colitis assessed as decrease in colitis score at 1.5 mg/kg, po administered twice daily via gavage pretreated for 2 days followed by TNBS stimulation on day 3 and subsequent compound dosing from day 3 to 6 measured post-last dose by histological analysis; format: functional, organism-based
[6] = AUC in Sprague-Dawley rat assessed as 2-((4-(Benzo[d]thiazol-5-ylamino)-6-(tert-butylsulfonyl)quinazolin-7-yl)oxy)ethanol level at 2 mg/kg, po by LC/MS/MS analysis; format: ADME, organism-based; conditions: in vivo
[7] = AUC in Sprague-Dawley rat at 2 mg/kg, po by LC/MS/MS analysis; format: ADME, organism-based; conditions: in vivo
[8] = Drug uptake in po dosed Sprague-Dawley rat systemic circulation by LC/MS/MS analysis; format: ADME, organism-based; conditions: in vivo
[9] = Solubility of the compound in FaSSIF measured after 4 hrs; format: physicochemical
Homo sapiens [10] = species on record: Homo sapiens; assay: Inhibition of NOD2/TLR4 in human PBMC assessed as reduction in MDP/LPS-induced IL6 production preincubated for 30 mins followed by […] and measured after 6 hrs by immunoassay
Homo sapiens [11] = species on record: Homo sapiens; assay: Inhibition of NOD2/TLR5 in human PBMC assessed as reduction in MDP/flagellin-induced TNFalpha production preincubated for 30 mins followed by […] and measured after 6 hrs by immunoassay
Homo sapiens [12] = species on record: Homo sapiens; assay: Inhibition of NOD2/IL1R in human PBMC assessed as reduction in MDP/Il1alpha-induced TNFalpha production preincubated for 30 mins followed by […] and measured after 6 hrs by immunoassay
Homo sapiens [13] = species on record: Homo sapiens; assay: (§2) Inhibition of NOD2/TLR2 in human PBMC assessed as reduction in MDP/Pam2CSK4-induced TNFalpha production preincubated for 30 mins followed by MDP/Pam2CSK4 stimulation and measured after 6 hrs by immunoassay
[14] = as §2
Homo sapiens [15] = species on record: Homo sapiens; assay: Inhibition of NOD2/TLR2 in human PBMC assessed as reduction in MDP/Pam2CSK4-induced IL6 production preincubated for 30 mins followed by MDP/Pam2CSK4 stimulation and measured after 6 hrs by immunoassay
Homo sapiens [16] = species on record: Homo sapiens; assay: Inhibition of NOD2/TLR5 in human PBMC assessed as reduction in MDP/flagellin-induced IL6 production preincubated for 30 mins followed by […] and measured after 6 hrs by immunoassay
Homo sapiens [17] = species on record: Homo sapiens; assay: Inhibition of NOD2/IL1R in human PBMC assessed as reduction in MDP/Il1alpha-induced IL6 production preincubated for 30 mins followed by […] and measured after 6 hrs by immunoassay
Homo sapiens [18] = species on record: Homo sapiens; assay: Inhibition of NOD2/TLR4 in human PBMC assessed as reduction in MDP/LPS-induced TNFalpha production preincubated for 30 mins followed by […] and measured after 6 hrs by immunoassay
Mus musculus [19] = assay: as §1, with “7.5 to 145” for “1.5”; format: functional, organism-based
[20] = biological target: Vascular endothelial growth factor receptor 3 (Homo sapiens) (UniProt P35916); assay: Inhibition of human VEGFR3 at 1 uM using poly[Glu:Tyr] (4:1) as substrate in presence of [gamma-33P]ATP relative to control
Sequence of Vascular endothelial growth factor receptor 3 (Homo sapiens) (P35916 whole entry): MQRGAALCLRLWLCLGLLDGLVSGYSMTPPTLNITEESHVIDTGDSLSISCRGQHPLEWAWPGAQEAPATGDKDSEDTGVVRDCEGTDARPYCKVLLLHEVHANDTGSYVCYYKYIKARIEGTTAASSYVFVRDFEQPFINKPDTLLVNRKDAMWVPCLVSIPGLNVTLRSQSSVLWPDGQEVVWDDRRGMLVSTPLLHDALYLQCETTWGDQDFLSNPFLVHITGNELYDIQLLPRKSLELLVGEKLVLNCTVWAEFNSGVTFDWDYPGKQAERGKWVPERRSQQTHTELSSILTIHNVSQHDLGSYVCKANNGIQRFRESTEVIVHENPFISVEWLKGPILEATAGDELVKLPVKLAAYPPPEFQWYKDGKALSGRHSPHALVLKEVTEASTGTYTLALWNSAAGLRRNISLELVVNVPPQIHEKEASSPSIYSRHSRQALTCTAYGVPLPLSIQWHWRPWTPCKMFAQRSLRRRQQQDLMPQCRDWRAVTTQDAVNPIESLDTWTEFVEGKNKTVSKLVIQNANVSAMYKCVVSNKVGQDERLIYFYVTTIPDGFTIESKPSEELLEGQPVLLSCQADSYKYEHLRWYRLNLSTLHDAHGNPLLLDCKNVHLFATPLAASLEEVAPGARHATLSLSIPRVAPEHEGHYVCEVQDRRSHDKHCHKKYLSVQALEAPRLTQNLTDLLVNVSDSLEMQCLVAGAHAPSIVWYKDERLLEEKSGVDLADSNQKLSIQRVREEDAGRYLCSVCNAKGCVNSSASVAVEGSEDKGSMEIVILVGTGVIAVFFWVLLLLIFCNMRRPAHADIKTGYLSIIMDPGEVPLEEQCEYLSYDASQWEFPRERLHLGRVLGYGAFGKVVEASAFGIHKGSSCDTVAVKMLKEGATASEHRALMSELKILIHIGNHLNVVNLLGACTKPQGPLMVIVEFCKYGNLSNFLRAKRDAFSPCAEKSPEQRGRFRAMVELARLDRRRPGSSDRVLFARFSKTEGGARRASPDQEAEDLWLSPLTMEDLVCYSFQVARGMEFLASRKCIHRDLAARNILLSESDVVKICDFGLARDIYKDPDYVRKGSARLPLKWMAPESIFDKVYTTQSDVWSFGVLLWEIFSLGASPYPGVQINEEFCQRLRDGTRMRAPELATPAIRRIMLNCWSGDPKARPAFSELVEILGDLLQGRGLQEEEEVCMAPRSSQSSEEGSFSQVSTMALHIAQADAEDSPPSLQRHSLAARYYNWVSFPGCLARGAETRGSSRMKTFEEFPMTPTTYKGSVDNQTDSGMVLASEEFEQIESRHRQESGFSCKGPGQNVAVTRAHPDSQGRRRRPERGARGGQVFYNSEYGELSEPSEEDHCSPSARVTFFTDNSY

Cricetinae = assay: Displacement of [125I]2-iodomelatonin from hamster MT3 receptor at 10 uM measured after 60 mins by scintillation counting method
[21] = biological target: T1, Receptor-interacting serine/threonine-protein kinase 2 (Homo sapiens, UniProt O43353); assay: Inhibition of RIPK2 in human whole blood assessed as reduction in MDP-induced TNFalpha production preincubated for 30 mins followed by MDP-stimulation and measured after 6 hrs by immunoassay; format: tissue-based
T1 sequence (O43353 whole entry): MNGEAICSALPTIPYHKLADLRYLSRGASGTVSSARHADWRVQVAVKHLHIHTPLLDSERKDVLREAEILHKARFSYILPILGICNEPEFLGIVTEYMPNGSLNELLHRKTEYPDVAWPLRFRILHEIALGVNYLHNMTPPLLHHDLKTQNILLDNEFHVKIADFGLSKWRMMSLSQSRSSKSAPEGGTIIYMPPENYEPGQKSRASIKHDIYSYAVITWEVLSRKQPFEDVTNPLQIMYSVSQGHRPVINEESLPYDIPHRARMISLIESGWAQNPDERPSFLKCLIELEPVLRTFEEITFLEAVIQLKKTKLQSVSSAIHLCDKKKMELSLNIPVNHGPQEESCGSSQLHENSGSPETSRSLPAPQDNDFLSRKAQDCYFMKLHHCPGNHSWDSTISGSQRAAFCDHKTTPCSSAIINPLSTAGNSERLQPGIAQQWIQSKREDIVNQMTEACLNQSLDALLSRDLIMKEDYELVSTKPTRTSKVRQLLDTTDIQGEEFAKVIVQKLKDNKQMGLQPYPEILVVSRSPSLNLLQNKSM

[22] = biological target: T1, Receptor-interacting serine/threonine-protein kinase 2; assay: Inhibition of fluorescent-labelled ligand binding to human RIP2K preincubated for 10 mins followed by fluorescent-labelled ligand addition and measured after 10 mins by fluorescence polarization assay
[23] = biological target: T2, Voltage-gated inwardly rectifying potassium channel KCNH2 (Homo sapiens, UniProt Q12809); assay: Inhibition of human ERG (1159 residues) expressed in CHOK1 cells at -80 mV holding potential measured after 5 mins by QPatch electrophysiology method; format: cell-based
T2 sequence (Q12809 whole entry): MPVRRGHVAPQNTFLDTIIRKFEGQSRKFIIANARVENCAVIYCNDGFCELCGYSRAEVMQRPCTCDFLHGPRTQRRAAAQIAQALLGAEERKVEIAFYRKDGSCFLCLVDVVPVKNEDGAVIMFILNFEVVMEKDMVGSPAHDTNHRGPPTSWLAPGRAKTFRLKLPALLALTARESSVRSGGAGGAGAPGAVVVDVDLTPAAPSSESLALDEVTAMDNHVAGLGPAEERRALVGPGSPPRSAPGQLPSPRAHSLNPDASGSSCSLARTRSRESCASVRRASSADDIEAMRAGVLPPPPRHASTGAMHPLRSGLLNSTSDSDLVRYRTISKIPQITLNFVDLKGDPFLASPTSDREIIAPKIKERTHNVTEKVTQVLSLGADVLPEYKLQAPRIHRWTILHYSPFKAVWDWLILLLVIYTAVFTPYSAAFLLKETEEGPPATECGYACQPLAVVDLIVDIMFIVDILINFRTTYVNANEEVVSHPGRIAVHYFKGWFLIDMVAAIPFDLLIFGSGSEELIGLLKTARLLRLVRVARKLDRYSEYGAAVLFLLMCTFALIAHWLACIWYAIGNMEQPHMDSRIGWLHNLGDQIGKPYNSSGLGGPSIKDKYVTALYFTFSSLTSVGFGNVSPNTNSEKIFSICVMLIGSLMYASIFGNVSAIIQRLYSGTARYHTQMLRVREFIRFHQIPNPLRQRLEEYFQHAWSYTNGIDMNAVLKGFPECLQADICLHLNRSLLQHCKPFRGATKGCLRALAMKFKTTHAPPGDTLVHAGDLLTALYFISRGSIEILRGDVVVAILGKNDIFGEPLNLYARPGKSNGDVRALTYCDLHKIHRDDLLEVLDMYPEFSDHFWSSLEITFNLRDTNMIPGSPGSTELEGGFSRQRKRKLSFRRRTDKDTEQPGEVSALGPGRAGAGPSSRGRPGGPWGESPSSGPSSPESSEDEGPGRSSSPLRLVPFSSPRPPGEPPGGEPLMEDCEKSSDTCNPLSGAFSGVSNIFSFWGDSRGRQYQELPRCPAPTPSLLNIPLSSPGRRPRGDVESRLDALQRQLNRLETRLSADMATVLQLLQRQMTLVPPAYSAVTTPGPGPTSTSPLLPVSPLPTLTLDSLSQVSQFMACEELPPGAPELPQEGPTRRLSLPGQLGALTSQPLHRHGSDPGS

Cytochrome P450 3A4 [24] = biological target: T3, Cytochrome P450 3A4 (Homo sapiens, UniProt P08684); assay: Inhibition of CYP3A4 (unknown origin) at 126 nM; format: ADME; conditions: 0.126 µM
T3 sequence (P08684 whole entry): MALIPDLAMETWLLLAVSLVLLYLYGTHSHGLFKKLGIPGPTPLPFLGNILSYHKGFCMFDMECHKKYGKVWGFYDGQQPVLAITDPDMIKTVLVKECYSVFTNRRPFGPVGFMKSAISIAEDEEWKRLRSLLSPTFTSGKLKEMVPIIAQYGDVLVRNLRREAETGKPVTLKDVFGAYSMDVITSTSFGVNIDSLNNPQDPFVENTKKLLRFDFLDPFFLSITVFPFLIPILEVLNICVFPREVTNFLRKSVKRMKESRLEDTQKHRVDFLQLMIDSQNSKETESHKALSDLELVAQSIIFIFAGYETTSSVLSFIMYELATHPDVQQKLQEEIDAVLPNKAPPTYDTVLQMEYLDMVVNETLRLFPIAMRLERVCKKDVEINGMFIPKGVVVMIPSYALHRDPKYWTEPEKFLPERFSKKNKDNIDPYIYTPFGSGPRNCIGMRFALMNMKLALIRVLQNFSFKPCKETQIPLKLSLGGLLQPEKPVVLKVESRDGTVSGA

[25] = Prodrug conversion in Sprague-Dawley rat hepatic portal vein assessed as 2-((4-(Benzo[d]thiazol-5-ylamino)-6-(tert-butylsulfonyl)quinazolin-7-yl)oxy)ethanol formation; format: ADME; conditions: in vivo
[26] = biological target: T2, Voltage-gated inwardly rectifying potassium channel KCNH2; assay: Inhibition of human ERG (1159 residues) expressed in CHOK1 cells at 7.3 uM at -80 mV holding potential measured after 5 mins by QPatch electrophysiology method; format: cell-based
CYP3A4 = CYP3A4 (Homo sapiens, UniProt P08684); assay: Ratio of IC50 for time dependent inhibition of CYP3A4 (unknown origin) in presence of NADPH to IC50 for time dependent inhibition of CYP3A4 (unknown origin) in absence of NADPH; conditions: read-out: Ratio IC50
Sequence of CYP3A4 (P08684 whole entry): as above

Cytochrome P450 3A4 [27] = biological target: T3, Cytochrome P450 3A4; assay: Time dependent inhibition of CYP3A4 (unknown origin); format: ADME
[28] = Solubility of the compound in FaSSIF; format: physicochemical; conditions: simulated gi fluid
[29] = Solubility of the compound in FeSSIF; format: physicochemical; conditions: simulated gi fluid

Compound: C[C@]12C=CC(=O)C=C1CC[C@@H]1[C@@H]2[C@@H](O)C[C@@]2(C)[C@H]1CC[C@]2(O)C(=O)CO
Activity (Intestinal mucosa [1]): Active | Activity (Intestinal mucosa [2]): Active | Activity (Intestinal mucosa [3]): Active | Activity (Intestinal mucosa [4]): Active | Activity (Mus musculus [5]): Active

AUC [6]: 10 ng·h/mL | AUC [7]: 10 ng·h/mL | Drug uptake [8]: Not Active | solubility at 4 h [9]: 0.012 mg/mL (≈ 22.7 µM)
Compound: CN(C)C(=O)OCCOc1cc2ncnc(Nc3ccc4scnc4c3)c2cc1S(=O)(=O)C(C)(C)C

solubility at 4 h [9]: 0.69 mg/mL
Compound: CC(C)[C@H](N)C(=O)OCCOc1cc2ncnc(Nc3ccc4scnc4c3)c2cc1S(=O)(=O)C(C)(C)C.Cl.Cl

inhibition (Homo sapiens [10]): Active | inhibition (Homo sapiens [11]): Active | inhibition (Homo sapiens [12]): Active | inhibition (Homo sapiens [13]): Dose-dependent effect | IC50 [14]: 0.025 µM | inhibition (Homo sapiens [15]): Active | inhibition (Homo sapiens [16]): Active | inhibition (Homo sapiens [17]): Active | inhibition (Homo sapiens [18]): Active
Compound: CC(C)S(=O)(=O)c1ccc2nccc(Nc3n[nH]c4ccc(F)cc34)c2c1

inhibition [20]: > 90% | inhibition (Cricetinae): Active
Compound: CC(C)(C)S(=O)(=O)c1cc2c(Nc3ccc4scnc4c3)ncnc2cc1OCCOP(=O)(O)O
Activity (Mus musculus [19]): Active

IC50 [21]: 0.374 µM | IC50 [22]: 0.004 µM
Compound: COc1cc2ncnc(Nc3ccc4scnc4c3)c2cc1S(=O)(=O)C(C)(C)C
IC50 [23]: > 30 µM

AUC [6]: 730 ng·h/mL | Drug uptake [8]: Not Active | inhibition (INH) (Cytochrome P450 3A4 [24]): Active | Drug metabolism [25]: Metabolite_Detected | inhibition (INH) (Cytochrome P450 3A4 [27]): Active
Compound: CC(C)[C@H](N)C(=O)OCCOc1cc2ncnc(Nc3ccc4scnc4c3)c2cc1S(=O)(=O)C(C)(C)C
inhibition (INH) [26]: Active | IC50 shift (CYP3A4): 2.9

Drug uptake [8]: Not Active | solubility at 4 h [9]: 2.46 mg/mL
Compound: CC(C)(C)S(=O)(=O)c1cc2c(Nc3ccc4scnc4c3)ncnc2cc1OCCOS(=O)(=O)[O-].[Na+]

solubility [28]: Soluble | solubility [29]: Soluble
Compound: CC(C)(C)S(=O)(=O)c1cc2c(Nc3ccc4scnc4c3)ncnc2cc1OCCOP(=O)(O)O.Cl

solubility [28]: Soluble | solubility [29]: Soluble
Compound: CC(C)(C)S(=O)(=O)c1cc2c(Nc3ccc4scnc4c3)ncnc2cc1OCCOP(=O)([O-])[O-].[Na+].[Na+]
